Columns and labels:
[1] = Preservation stability of the coating liquid; type: physicochemical
Outline: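 Coating liquid stored 2 months at 0° C shielded from light, then graded A–E. Grades rest on visual appearance, change in composition by GPC, and weight ratio of insoluble components to total solids.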

[2] = Optical stability of the optical film (xenon-lamp irradiation); type: physicochemical; conditions: summary in words
Procedure: The coating liquid was applied to a glass substrate by spin coating, the glass substrate including a rubbed polyimide layer deposited thereon. The glass substrate was then placed on a hot plate, dried at 80° C. for 1 minute, and further dried at 140° C. for another 1 minute. Subsequently, irradiation with ultraviolet radiation at 1000 mJ/cm and 140° C. was performed.
The optical film was irradiated with light at 50 mW/cm^2, 25° C., and 100 J using a xenon-lamp irradiation testing machine (SUNTEST XLS, produced by Atlas). The optical stability of the optical film was evaluated on a scale of A to E below.
A: No change in the film was visually confirmed. An inspection of the optical film with a polarized light microscope also confirmed no defects.
B: Although no change in the film was visually confirmed, an inspection of the optical film with a polarized light microscope confirmed slight orientation defects.
C: Slight yellowing of the film was visually confirmed.
D: Yellowing of the film was visually confirmed. In addition, the optical film was partly detached from the glass substrate.
E: Yellowing of the entire film was visually confirmed. In addition, the optical film was detached from the glass substrate.

[3] = coating liquid stored for 2 months shielded from light at 0° C., appearance and GPC

Preservation stability ([1]; summary in words)	optical stability [2]	SMILES	Preservation stability [1, 3]
high	high	C=CC(=O)OCCCCCCOc1ccc(OC(=O)C2CCC(C(=O)OCCc3ccc(OC(=O)C4CCC(C(=O)Oc5ccc(OCCCCCCOC(=O)C=C)cc5)CC4)c(/C=N/N(CCCCCC)c4nc5ccccc5s4)c3)CC2)cc1 (centres unmarked) [1-cmn-82]	A (No visual change in the appearance of the coating liquid was confirmed. A GPC analysis of the coating liquid confirmed that the change in the composition of the coating liquid was 1% or less.)
		C=CC(=O)OCCCCCCOc1ccc(OC(=O)C2CCC(C(=O)Oc3ccc(OC(=O)C4CCC(C(=O)Oc5ccc(OCCCCCCOC(=O)C=C)cc5)CC4)c4c3SC(=C(C#N)C#N)S4)CC2)cc1 (centres unmarked) [r-2, reference compound]	C (A visual change in the appearance of the coating liquid was confirmed; a trace amount of insoluble components were confirmed, or a GPC analysis of the coating liquid confirmed that the change in the composition of the coating liquid was 3% or less.)
		C=CC(=O)OCCCCCCOC1CCC(OC(=O)C2CCC(C(=O)Oc3ccc(OC(=O)C4CCC(C(=O)OC5CCC(OCCCCCCOC(=O)C=C)CC5)CC4)c4c3SC(=C(C#N)C(=O)OCC)S4)CC2)CC1 (centres unmarked) [r-3, reference compound]	C (A visual change in the appearance of the coating liquid was confirmed; a trace amount of insoluble components were confirmed, or a GPC analysis of the coating liquid confirmed that the change in the composition of the coating liquid was 3% or less.)

Reference: patent US10633353B2, “Polymerizable compound, composition, polymer, optically anisotropic body, liquid crystal display element, and organic EL display” (DIC Corporation, priority 2014, dated 2020)
